The record followed here is patent US11485725B2, “Derivatives of piperlongumine and uses thereof” (Auransa Inc., priority 2017, dated 2022).

The subject of one data set is MOLP-8. Briefly: In vitro cell viability assay (CellTiter-Glo, ATP levels), multiple myeloma cells. The note with it: Homo sapiens, MOLP-8, 168 h, 7-day incubation, CellTiter-Glo, average values; read-out: MOLP-8 IC50. It is filed as cell-based. In short, it runs like this: (§1)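 Cells plated overnight, then exposed to compounds over a concentration range for 7 days at 37 °C, 5% CO2. Viability read as ATP luminescence (CellTiter-Glo), normalised to positive and negative control wells; IC50 from Hill-equation non-linear regression of concentration–response curves.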
(In ATP-based viability assays light output follows the ATP content of the culture.)

Another data set deals with DU4475. Briefly: In vitro cell viability assay (CellTiter-Glo, ATP levels), triple negative breast cancer cells. Format: cell-based. Conditions: Homo sapiens, DU-4475, 168 h, read-out: DU4475 IC50. In short, it runs like this:
as §1

Data set [1] deals with HCT116 (colorectal cancer) cells. As to the kind of experiment: Resazurin-based cell viability assay using colorectal cancer cells. The note with it: Homo sapiens, HCT-116, 72 hr incubation. In short, it runs like this: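 HCT116 cells in DMEM/10% FBS grown 24 h, then exposed to serially diluted compounds for 72 h at 37 °C. Viability read as resazurin (1 mM) fluorescence (ex 535/em 590 nm) after 4–6 h; background-subtracted, normalised to DMSO control, IC50 fitted from percent survival.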

Data set [2] can be described thus: In vivo pharmacokinetic analysis, plasma. The note with it: mice, result in words. On the set-up: species or system Balb/C female mice. The method, then:
In Vivo Pharmacokinetic Analysis
Age 8 to 9 weeks Balb/C female mice were used for this study. The mice were maintained in a special pathogen-free environment and in disposable cages. Animal room was set to maintain temperature and relative humidity at 23° C.±3° C. and 55%±15%, respectively. Housing room was on a 12:12 light/dark cycle. Water was supplied ad libitum to each cage via water bottles. All mice were fed rodent diet with 18% protein. All animals were weighed before commencement of the study.
Compound 1 was stored at 4° C. protected from light. Dosing solutions were used within 2 hours of preparation. Compound 1 was formulated within 2 hours prior to dosing by adding the pre-calculated volume of PEG 400 (40% of total solution volume). Formulated compound 1 was vortexed and sonicated until a clear solution was formed. […]
The concentration of Compound 1 was determined by a UPLC-TIS-MS-MS method (ultra performance liquid chromatography-turbo ion spray-tandem mass spectrometry). […]
Mass spectrometric analysis was performed using an AB Sciex API5000 with Turbo Ion Spray interface operating in a positive ionization mode. Quantification was performed using multiple reaction monitoring (MRM) method with the transitions of (m/z) 316.104→(m/z) 219.014 for Compound 1 and (m/z) 455.346→(m/z) 165 for verapamil (internal standard). […]

Data set [3] is described as follows: In vitro microsome stability analyses. It is filed as in vitro ADME. Conditions: result in words.
Setting [4] is: 7-day incubation, CellTiter-Glo, average values.

Each structure is given as a SMILES string. pIC50: −log10 of the molar value. Read-outs that look alike come from different tables or passages of the source.

What is called pIC50 is −log10 of the IC50, conventionally taken in molar units. In the case of `COc1cc(/C=C/C(=O)N2CCC=CC2=O)cc2c1OCCO2` [Compound 1, (E)-1-(3-(8-methoxy-2,3-dihydrobenzo[b][1,4]dioxin-6-yl)acryloyl)-5,6-dihydropyridin-2(1H)-one], the negative-log IC50 (pIC50) is 6.13 in the data set with MOLP-8, 6.08 in the data set with DU4475 (setting [4]) and 5.72 in data set [1]. The “in vivo plasma half-life (t1/2) as compared to piperlongumine” value in data set [2] is listed as “increased in vivo plasma half-life (t1/2) as compared to piperlongumine”. In data set [3], the “potency and/or metabolic stability” value is recorded as “demostrated potency and/or metabolic stability”.
Take `NC(=O)N1CCC(/C=C/C(=O)N2CCC=CC2=O)CC1` [Compound 68, (E)-4-(3-oxo-3-(6-oxo-3,6-dihydropyridin-1(2H)-yl)prop-1-en-1-yl)piperidine-1-carboxamide]: the values for the pIC50 (in the data set with MOLP-8; in the data set with DU4475 (setting [4]); in data set [1]) were 6.17, 5.81 and 5.13, respectively.
For the compound `Cn1cc(/C=C/S(=O)(=O)N2CCC=CC2=O)cn1` [Compound 75, 1-{[(E)-2-(1-methyl-1H-pyrazol-4-yl)ethenyl]sulfonyl}-5,6-dihydropyridin-2(1H)-one], the pIC50 in the data set with MOLP-8 is 6.07; in the data set on DU4475 (setting [4]) it was 5.80; in data set [1] it was 5.34.
The corresponding values for `COc1cnc(/C=C/C(=O)N2CCC=CC2=O)nc1` [Compound 63, (E)-1-(3-(5-methoxypyrimidin-2-yl)acryloyl)-5,6-dihydropyridin-2(1H)-one] are 6.54, 6.32 and 5.68.
With `O=C1C=CCCN1C(=O)/C=C/c1cnn(CC(F)(F)F)c1` [Compound 90, 1 11-{(2E)-3-[1-(2,2,2-trifluoroethyl)-1H-pyrazol-4-yl]prop-2-enoyl}-5,6-dihydropyridin-2(1H)-one], the pIC50 is 6.36 in the data set with MOLP-8, 5.83 with DU4475 (setting [4]) and 5.15 in data set [1].
The corresponding values for `C/C(=C\C1CCN(C(=O)OC(C)(C)C)CC1)C(=O)N1CCC=CC1=O` [Compound 72, tert-butyl (E)-4-(2-methyl-3-oxo-3-(6-oxo-3,6-dihydropyridin-1(2H)-yl)prop-1-en-1-yl)piperidine-1-carboxylate] are 5.57, 5.35 and 4.99.
In the case of `CC1(/C=C/C(=O)N2CCC=CC2=O)CCCCC1` [Compound 22, (E)-1-(3-(1-methylcyclohexyl)acryloyl)-5,6-dihydropyridin-2(1H)-one], the negative-log IC50 (pIC50) in the data set with MOLP-8 was 5.66; in the data set on DU4475 (setting [4]), 5.74; in data set [1], 5.41.
Take `Cn1cc(/C=C(/C(=O)N2CCC=CC2=O)c2ccccc2)cn1` [Compound 83, 1-[(2E)-3-(1-methyl-1H-pyrazol-4-yl)-2-phenylprop-2-enoyl]-5,6-dihydropyridin-2(1H)-one]: the pIC50 in the data set with MOLP-8 is 5.56; with DU4475 (setting [4]), 5.32; in data set [1], 4.95.
`CC(C)(C)OC(=O)N1CCC(/C=C(/C(=O)N2CCC=CC2=O)c2ccccc2)CC1` [Compound 91, (E)-tert-butyl 4-(3-oxo-3-(2-oxo-5,6-dihydropyridin-1(2H)-yl)-2-phenylprop-1-enyl)piperidine-1-carboxylate]: the pIC50 with MOLP-8 is 5.49; in the data set on DU4475, 5.38; in data set [1], 5.04.
On to `CC(=O)N1CCC(/C=C/C(=O)N2CCC=CC2=O)CC1` [Compound 9, (E)-1-(3-(1-acetylpiperidin-4-yl)acryloyl)-5,6-dihydropyridin-2(1H)-one], for which the negative-log IC50 (pIC50) in the data set with MOLP-8 was 6.01; in the data set with DU4475 (setting [4]), 6.04; in data set [1] it was 5.24.
With `O=C(Nc1ccc(F)cc1)N1CCC(/C=C/S(=O)(=O)N2CCC=CC2=O)CC1` [Compound 82, (E)-N-(4-fluorophenyl)-4-(2-((6-oxo-3,6-dihydropyridin-1(2H)-yl)sulfonyl)vinyl)piperidine-1-carboxamide], the negative logarithm of the IC50 (pIC50) was 6.44 with MOLP-8, 6.10 in the data set on DU4475 (setting [4]) and 5.65 in data set [1].
The corresponding values for `Cn1ccc(/C=C/C(=O)N2CCC=CC2=O)n1` [Compound 53, 1-[(2E)-3-(1-methyl-1H-pyrazol-3-yl)prop-2-enoyl]-5,6-dihydropyridin-2(1H)-one] are 6.25, 6.14 and 5.67.
The corresponding values for `O=C1C=CCCN1C(=O)/C=C/C1CCNCC1` [Compound 20, (E)-1-(3-(piperidin-4-yl)acryloyl)-5,6-dihydropyridin-2(1H)-one] are 6.16, 5.88 and 5.67.
